# Patent US20140356383A1, “ADMINISTRATION OF AN ANTI-GCC ANTIBODY-DRUG CONJUGATE AND A DNA DAMAGING AGENT IN THE TREATMENT OF CANCER” (priority 2013, published 2014)
# Square brackets hold non-standard residues; d marks the D form. Peptide text beside a SMILES is read from it. * marks the point of attachment. Dolaproine = CO[C@@H]([C@@H]1CCCN1)[C@@H](C)C(=O)O; Dil = CC[C@H](C)[C@H](NC)[C@@H](CC(=O)O)OC; X1 = C[C@@H](N*)[C@@H](O)c1ccccc1; NMeV = CN[C@H](C(=O)O)C(C)C
# Key:
# 293 GCC#2 tumors = test: Efficacy study with auristatin conjugates in 293 GCC#2 tumors, q7d×4; assay type: in vivo, SCID mice; set-up: TGI / TGD: unit not given here; details: 300 μg/kg iv q7d×4
# Method: 293 GCC#2 tumor-bearing SCID mice were treated with 5F9 conjugates with vc MMAE, vcMMAF or mcMMAF at three doses in comparison with 209 conjugates of these toxins or with free toxins or vehicle control. Doses were administered iv on a q7d×4 schedule. Tumors were harvested at days 3, 7, 10, 13 and 17. […] Table 18 provides a summary of the results (TGI=tumor growth inhibition, T/C=treatment/control, TGD=tumor growth delay, CR/PR=complete response/partial response; p value=measure to judge statistical significance, NS=not significant).
# [1] = Free-MMAE levels in serum vs. tumor after 5F9 vcMMAE; assay type: in vivo, mice; set-up: AUCinf Serum / AUCinf Tumor: concentration or dose not given beside the values; details: for AUCinf Serum / AUCinf Tumor: free MMAE after 5F9 vcMMAE; for Tumor/Serum: ratio of MMAE AUCinf
# Method: Thus, the 5F9 vcMMAE immunoconjugate was confirmed to bind to GCC in the refractory PHTX-11c model. Free-MMAE levels in serum vs. tumor were also assessed to ensure the 5F9 vcMMAE immunoconjugate was being processed by the tumors (i.e., that the immunoconjugate was being internalized and that MMAE was being cleaved). A comparison of free-MMAE serum and tumor levels in the MMAE-refractory PHTX-11c model and the sensitive PHTX-09c and HEK293 GCC #2 models is shown Table 27 below. The presence of drug was confirmed within the tumors during dosing and post-dosing. Additionally, the free-MMAE levels in this tumor model were the same as the levels seen in tumor xenograft models that were sensitive to the immunoconjugate.
# [2] = tested on: PHTX-9c primary human colon tumor xenograft; test: Single agent antitumor activity in PHTX-9c (PHTX-09c) primary human colon tumor xenograft
# Method: Female CB-17 SCID mice (eight weeks old) were inoculated subcutaneously (SC) into the flank with PHTX-9c tumor fragments (2 mm×2 mm). Tumor growth was monitored twice per week using vernier calipers and the mean tumor volume was calculated using the formula (0.5×[length×width^2]). When the mean tumor volume reached approximately 150 mm^3 (Study A) or 160 mm^3 (Study B), animals were randomized into treatment groups (n=10/group for Study A and n=9/group for Study B).
# Doses were administered on Days 1, 8, and 15 for the QW schedule and Days 1, 4, 8, 11, 15, and 18 for the BIW schedule. […] The equivalent dose of linker+MMAE is 4% of the 5F9-vcMMAE dose. These calculations are based on a mean 3.9 MMAE molecules per antibody and a free antibody molecular weight of 150 kD. Actual antibody molecular weight will vary slightly due to degree of glycosylation.
# Tumor volume and body weight were measured twice weekly and were continued beyond the treatment period to measure regrowth kinetics, as evidenced by tumor growth delay (TGD). Tumor volume measurements were continued until tumor volume reached 10% of the body weight in a single mouse within a treatment group, at which time the group was terminated. The percentage of tumor growth inhibition (TGI) ([mean tumor volume of the control group—mean tumor volume of a treated group]/mean tumor volume of the control group; a T/C ratio) was determined on Day 20. The T/C ratios across a treatment group were compared to the T/C ratios of the control group using a two-tailed Welch's t-test.
# The differences in the tumor growth trends over time between pairs of treatment groups were assessed using linear mixed effects regression models. These models account for the fact that each animal was measured at multiple time points. A separate model was fit for each comparison, and the areas under the curve (AUC) for each treatment group were calculated using the predicted values from the model. The percent decrease in AUC (dAUC) relative to the reference group was then calculated.
# The 5F9 vcMMAE immunoconjugate was tested for single agent anti-tumor activity in the four primary human tumor xengraft models at varying concentrations in order to explore whether GCC expression levels played a role in tumor sensitivity. […] Free-MMAE was also used as a negative control.
# PHTX-09c s.c. xenograft = test: 5F9 vcMMAE and cisplatin in PHTX-09c s.c. xenografts (Study CPGC-11-EF05)
# Method: The endpoints for each treatment group was either a) tumor volume reaches 10% body weight; or b) body weight loss of >20%. The projected tumor volume at the study initiation date was 200 mm^3.
# Not greater than one day prior to dosing, all animals were weighed to the nearest gram and grouped. Dosing solutions were vortexed prior to each administration to ensure correct delivery of compound. Animals received approximately 0.1 ml doses administered I.V. using a 1 cc syringe, 27-30 gauge, ½-¾ inch in length.
# Tumor volume measurements were obtained twice per week using Vernier calipers (0.01 mm). Tumor volume was calculated using the formula:
# Efficacy was evaluated in terms of % tumor growth inhibition (TGI) and tumor growth delay (TGD); the difference in days for treated vs. control tumors to reach final study volume).
# TGI was assessed on an arbitrary day (when the maximum tumor volume (“MTV” of the control treatment group reaches the maximum allowable tumor volume), using the following formula:
# TGD was assessed by calculating T−C, where T=mean time (in days) for treatment group tumors to reach a predetermined size, and where C=mean time (in days) for the control group tumors to reach a predetermined size (e.g., 1,000 mm^3).
# The predicted differences in the log tumor values (Yijk−Yi0k, which can be interpreted as log10 (fold change from day 0)) were taken from the above models to calculate mean AUC values for each treatment group. A dAUC value was then calculated as:
# For synergy analyses, the observed differences in the log tumor values were used to calculate AUC values for each animal. […] The AUC for the control, or vehicle, group was calculated using the predicted values from the pairwise models described above. A measure of synergy was defined as follows:
# where Ak and Bk are the k^th animal in the individual treatment groups and ABk is the k^th animal in combination treatment group. AUCctl is the model-predicted AUC for the control group and was treated as a constant with no variability. The standard error of the synergy score was calculated as the square root of the sum of squared standard errors across groups A, B, and AB. The degrees of freedom were estimated using the Welch-Satterthwaite equation. A hypothesis test was performed to determine if the synergy score differed from 0. P values were calculated by dividing the synergy score by its standard error and tested against a t-distribution (two-tailed) with the above-calculated degrees of freedom.
# The effect was classified into four different categories. It was considered synergistic if the synergy score was less than 0, and additive if the synergy score wasn't statistically different from 0.
# [3] = tested on: PHTX-249 Pa s.c. xenograft; test: 5F9 vcMMAE and gemcitabine in PHTX-249 Pa s.c. xenografts (Study CPGC-13-EF05); assay type: in vivo, CB-17 SCID mice; details: reference vehicle
# Method: (§1) Day D0 was the first day of treatment.
# (§2) Tumor volume was calculated using the formula: […]
# (§3) A negative dAUC is interpreted as an increase in AUC relative to the reference. It is important to evaluate not only the P value, but also the dAUC. Comparisons with significant P values, but small dAUC values, may not be of interest.
# [4] = tested on: PHTX-249 Pa s.c. xenograft; test: 5F9 vcMMAE and gemcitabine in PHTX-249 Pa s.c. xenografts (Study CPGC-13-EF08); assay type: in vivo, CB-17 SCID mice; details: for dAUC: reference vehicle
# Method: 264.4 ul stock Gemcitabine into 3135.6 ul NS.
# as §1, §2, §3
# [5] = tested on: PHTX-215 Pa s.c. xenograft; test: 5F9 vcMMAE and gemcitabine in PHTX-215 Pa s.c. xenografts (Study CPGC-13-EF10); assay type: in vivo, CB-17 SCID mice; details: for dAUC (percent decrease in treatment AUC relative to reference group V, vehicle): PHTX-215 Pa s.c. xenograft, CB-17 SCID mice
# Method: as §1, §2
# Table 77A the annotation table for group symbols. […] A negative dAUC is interpreted as an increase in AUC relative to the reference. It is important to evaluate not only the P value, but also the dAUC. Comparisons with significant P values, but small dAUC values, may not be of interest.
# [6] = Study A, 0.075 mg/kg IV QW × 3 doses
# [7] = Study A, 0.15 mg/kg IV QW × 3 doses
# [8] = Study B, 0.135 mg/kg IV QW × 3 doses
# [9] = Study B, 0.18 mg/kg IV QW × 3 doses
# [10] = PHTX-215 Pa, immunoconjugate plus gemcitabine 15 mg/kg on days 1 and 3, or single agent gemcitabine
smiles,measurement,setting,value
"CC[C@H](C)[C@@H]([C@@H](CC(=O)N1CCC[C@H]1[C@H](OC)[C@@H](C)C(=O)N[C@H](C)[C@@H](O)c1ccccc1)OC)N(C)C(=O)[C@@H](NC(=O)[C@@H](NC)C(C)C)C(C)C [MMAE, monomethyl auristatin E, reference compound] (H-[NMeV]V[Dil][Dolaproine]-X1)",TGI,293 GCC#2 tumors,35.6
same,CR/PR,293 GCC#2 tumors; complete response/partial response,0
same,T/C,293 GCC#2 tumors; treatment/control,0.64
same,TGD,293 GCC#2 tumors; tumor growth delay,2
same,AUCinf Serum,[1]; 293 GCC #2 model,0.0563 µg·h/mL
same,AUCinf Tumor,[1]; 293 GCC #2 model,24.953 µg·h/mL
same,AUCinf Serum,[1]; PHTX-9C model,0.0683 µg·h/mL
same,AUCinf Tumor,[1]; PHTX-9C model,8.67 µg·h/mL
same,AUCinf Serum,[1]; PHTX-11C model,0.0441 µg·h/mL
same,AUCinf Tumor,[1]; PHTX-11C model,13.4 µg·h/mL
same,Tumor/Serum,[1]; 293 GCC #2 model,443
same,Tumor/Serum,[1]; PHTX-9C model,127
same,Tumor/Serum,[1]; PHTX-11C model,304
same,BW change (mean maximum percent),[2]; [6],8.3%
same,TGD,[2]; [6],1.0 days
same,BW change (mean maximum percent),[2]; [7],10.8%
same,TGD,[2]; [7],2.0 days
same,BW change (mean maximum percent),[2]; [8],9.3%
same,TGD,[2]; [8],0.2 days
same,BW change (mean maximum percent),[2]; [9],−2.3%
same,TGD,[2]; [9],8.6 days
same,TGI,"[2]; Study B, 0.18 mg/kg IV QW × 3 doses, Day 20, 0.18 mg/kg",50.4 (p > 0.001) %
same,greatest maximum body weight loss during treatment period,"[2]; Study B, day 7, 0.18 mg/kg MMAE group and 0.938 mg/kg 5F9-vcMMAE group",2.3%
N.N.[Cl][Pt][Cl] [cisplatin],number of doses tolerated,PHTX-09c s.c. xenograft; 4 mg/kg once weekly,2 doses
same,number of doses tolerated,PHTX-09c s.c. xenograft; 6 mg/kg once weekly,1 dose
same,body weight loss,"PHTX-09c s.c. xenograft; PHTX-09c, cisplatin alone",> 15%
same,dAUC,"PHTX-09c s.c. xenograft; group C: cisplatin 4 mg/kg QW x2, reference vehicle",50.6%
Nc1ccn([C@@H]2O[C@H](CO)[C@@H](O)C2(F)F)c(=O)n1 [gemcitabine],dAUC,[3]; group B: Gemcitabine 15 mg/kg BIW,46.0%
same,dAUC,[3]; group C: Gemcitabine 20 mg/kg BIW,46.7%
same,tumor regressions (animals),"[4]; PHTX-249 Pa (Studies CPGC-13-EF05/EF08), 5F9 vcMMAE 7.5 mg/kg, gemcitabine 15 mg/kg on days 1 and 3, alone or combined",no tumor regressions
same,tumor growth delay,"[4]; PHTX-249 Pa, 5F9 vcMMAE plus gemcitabine 15 mg/kg on days 1 and 3 vs single agent",17 days
same,dAUC,[4]; group D: Gemcitabine 15 mg/kg BIW,52.4%
same,dAUC,"[4]; group E: Gemcitabine 15 mg/kg D1,D3/week",76.9%
same,TGI,[5]; [10],69%
same,tumor growth delay,[5]; [10],22.7 days
same,tumor regressions (animals),[5]; [10],no tumor regressions
same,"dAUC (percent decrease in treatment AUC relative to reference group V, vehicle)","[5]; group C: Gemcitabine 15 mg/kg IV D1,D3/week x3",61.0%
same,"dAUC (percent decrease in treatment AUC relative to reference group V, vehicle)",[5]; group F: Gemcitabine 20 mg/kg IV BIW,65.2%
